Source: patent US11945813B2, “5-substituted 4-amino-1H-benzo[c][1,2,6]thiadiazine 2,2-dioxides and formulations and uses thereof” (Firmenich Incorporated, priority 2018, dated 2024)

Target: T1, T1R2/T1R3 taste receptor (Homo sapiens, UniProt Q8TE23)
T1 sequence (Q8TE23 20-839): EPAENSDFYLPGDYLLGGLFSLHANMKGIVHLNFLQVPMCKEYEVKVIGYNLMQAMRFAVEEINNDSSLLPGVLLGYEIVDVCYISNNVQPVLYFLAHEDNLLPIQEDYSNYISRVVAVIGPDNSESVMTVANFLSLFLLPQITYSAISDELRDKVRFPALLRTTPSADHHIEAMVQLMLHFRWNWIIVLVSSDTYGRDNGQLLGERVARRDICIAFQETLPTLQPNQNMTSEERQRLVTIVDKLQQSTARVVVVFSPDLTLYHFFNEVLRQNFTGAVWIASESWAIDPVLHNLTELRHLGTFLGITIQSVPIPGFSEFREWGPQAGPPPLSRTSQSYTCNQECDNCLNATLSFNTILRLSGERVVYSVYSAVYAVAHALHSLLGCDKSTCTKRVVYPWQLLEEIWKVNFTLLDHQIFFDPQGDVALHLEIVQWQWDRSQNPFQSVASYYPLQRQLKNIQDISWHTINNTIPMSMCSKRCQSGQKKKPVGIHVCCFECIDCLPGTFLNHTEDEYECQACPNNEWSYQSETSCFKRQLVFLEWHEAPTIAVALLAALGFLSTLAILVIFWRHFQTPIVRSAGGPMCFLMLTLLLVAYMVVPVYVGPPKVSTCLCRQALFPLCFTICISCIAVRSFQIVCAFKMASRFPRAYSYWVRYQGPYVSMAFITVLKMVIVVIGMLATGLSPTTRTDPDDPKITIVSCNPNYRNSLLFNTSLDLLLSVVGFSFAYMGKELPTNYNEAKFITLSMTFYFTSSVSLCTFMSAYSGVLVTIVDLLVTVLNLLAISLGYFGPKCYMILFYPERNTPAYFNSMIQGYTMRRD
T1 sequence (Q7RTX0 21-852 partner): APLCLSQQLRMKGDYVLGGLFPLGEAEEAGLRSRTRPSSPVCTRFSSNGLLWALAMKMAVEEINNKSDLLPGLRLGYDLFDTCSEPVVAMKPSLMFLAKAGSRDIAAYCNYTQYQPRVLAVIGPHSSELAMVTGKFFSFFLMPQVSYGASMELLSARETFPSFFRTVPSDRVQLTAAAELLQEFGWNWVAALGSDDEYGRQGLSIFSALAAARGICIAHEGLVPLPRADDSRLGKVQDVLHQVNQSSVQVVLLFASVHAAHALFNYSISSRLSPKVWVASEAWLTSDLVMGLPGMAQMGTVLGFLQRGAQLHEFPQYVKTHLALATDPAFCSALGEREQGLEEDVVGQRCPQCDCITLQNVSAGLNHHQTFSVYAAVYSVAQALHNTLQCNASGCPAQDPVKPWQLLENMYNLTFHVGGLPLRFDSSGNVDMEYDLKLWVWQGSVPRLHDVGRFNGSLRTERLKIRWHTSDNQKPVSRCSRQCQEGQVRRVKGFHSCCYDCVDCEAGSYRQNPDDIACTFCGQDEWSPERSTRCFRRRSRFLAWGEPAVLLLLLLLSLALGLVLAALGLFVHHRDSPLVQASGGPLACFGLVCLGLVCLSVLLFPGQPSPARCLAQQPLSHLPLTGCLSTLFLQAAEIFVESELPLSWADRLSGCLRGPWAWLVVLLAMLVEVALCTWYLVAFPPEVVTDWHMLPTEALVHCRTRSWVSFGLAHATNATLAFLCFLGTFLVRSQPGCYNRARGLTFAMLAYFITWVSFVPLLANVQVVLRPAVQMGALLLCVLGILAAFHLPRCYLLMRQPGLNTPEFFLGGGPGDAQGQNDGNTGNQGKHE
Test: Receptor-based assay: sweetener EC50 alone and with test compound (enhancement ratio)
Format: cell-based
Settings: for Fructose Enhancement EC50 Ratio: sweetener fructose; for Sucralose Enhancement EC50 Ratio: sweetener sucralose; for Sucrose Enhancement EC50 Ratio: sweetener sucrose
Description: Potencies (EC50 values) for the sweeteners sucrose, sucralose, and fructose were measured against the T1R2/T1R3 taste receptor. EC50 was determined using the sweetener alone and in the presence of 3 μM, 10 μM, or 50 μM of test compound. EC50 ratios were calculated by the ratio of potency with and without the test compound. An “A” value indicates an enhancement ratio of greater than 20. A “B” value indicates an enhancement ratio from 10 to 20. A “C” value indicates an enhancement ratio greater than 1 and less than 10.

## NC1=NS(=O)(=O)Nc2cccc(OC[C@H]3CCCN(c4cc(C(=O)N5CCCC5)ccn4)C3)c21 [Compound 612]
10 μM test compound
  Fructose Enhancement EC50 Ratio: C (A “C” value indicates an enhancement ratio greater than 1 and less than 10)
  Sucralose Enhancement EC50 Ratio: A (An “A” value indicates an enhancement ratio of greater than 20)
  Sucrose Enhancement EC50 Ratio: C (A “C” value indicates an enhancement ratio greater than 1 and less than 10)
50 μM test compound
  Fructose Enhancement EC50 Ratio: C (A “C” value indicates an enhancement ratio greater than 1 and less than 10)
  Sucralose Enhancement EC50 Ratio: A (An “A” value indicates an enhancement ratio of greater than 20)
  Sucrose Enhancement EC50 Ratio: C (A “C” value indicates an enhancement ratio greater than 1 and less than 10)
3 μM test compound
  Sucrose Enhancement EC50 Ratio: C (A “C” value indicates an enhancement ratio greater than 1 and less than 10)

## COCCNC(=O)c1ccc(N2CCC[C@H](COc3cccc4c3C(N)=NS(=O)(=O)N4)C2)nc1 [Compound 504]
50 μM test compound
  Fructose Enhancement EC50 Ratio: C (A “C” value indicates an enhancement ratio greater than 1 and less than 10)
  Sucralose Enhancement EC50 Ratio: A (An “A” value indicates an enhancement ratio of greater than 20)
  Sucrose Enhancement EC50 Ratio: C (A “C” value indicates an enhancement ratio greater than 1 and less than 10)
10 μM test compound
  Sucralose Enhancement EC50 Ratio: A (An “A” value indicates an enhancement ratio of greater than 20)
  Sucrose Enhancement EC50 Ratio: C (A “C” value indicates an enhancement ratio greater than 1 and less than 10)
3 μM test compound
  Sucrose Enhancement EC50 Ratio: C (A “C” value indicates an enhancement ratio greater than 1 and less than 10)

## CC(C)(COc1cccc2c1C(N)=NS(=O)(=O)N2)Nc1ccccn1 [Compound 101]
10 μM test compound
  Fructose Enhancement EC50 Ratio: C (A “C” value indicates an enhancement ratio greater than 1 and less than 10)
  Sucralose Enhancement EC50 Ratio: A (An “A” value indicates an enhancement ratio of greater than 20)
  Sucrose Enhancement EC50 Ratio: C (A “C” value indicates an enhancement ratio greater than 1 and less than 10)
50 μM test compound
  Sucralose Enhancement EC50 Ratio: A (An “A” value indicates an enhancement ratio of greater than 20)
  Sucrose Enhancement EC50 Ratio: C (A “C” value indicates an enhancement ratio greater than 1 and less than 10)
3 μM test compound
  Sucrose Enhancement EC50 Ratio: C (A “C” value indicates an enhancement ratio greater than 1 and less than 10)

## CN(C)C(=O)c1ccc(N2CCC[C@H](COc3cccc4c3C(N)=NS(=O)(=O)N4)C2)nc1 [Compound 510]
50 μM test compound
  Fructose Enhancement EC50 Ratio: C (A “C” value indicates an enhancement ratio greater than 1 and less than 10)
  Sucralose Enhancement EC50 Ratio: A (An “A” value indicates an enhancement ratio of greater than 20)
  Sucrose Enhancement EC50 Ratio: A (An “A” value indicates an enhancement ratio of greater than 20)
10 μM test compound
  Sucralose Enhancement EC50 Ratio: B (A “B” value indicates an enhancement ratio from 10 to 20)
  Sucrose Enhancement EC50 Ratio: C (A “C” value indicates an enhancement ratio greater than 1 and less than 10)
3 μM test compound
  Sucrose Enhancement EC50 Ratio: C (A “C” value indicates an enhancement ratio greater than 1 and less than 10)

## CN(C)CCNC(=O)c1ccc(N2CCC[C@H](COc3cccc4c3C(N)=NS(=O)(=O)N4)C2)nc1 [Compound 505]
50 μM test compound
  Fructose Enhancement EC50 Ratio: C (A “C” value indicates an enhancement ratio greater than 1 and less than 10)
  Sucralose Enhancement EC50 Ratio: A (An “A” value indicates an enhancement ratio of greater than 20)
  Sucrose Enhancement EC50 Ratio: C (A “C” value indicates an enhancement ratio greater than 1 and less than 10)
10 μM test compound
  Sucralose Enhancement EC50 Ratio: C (A “C” value indicates an enhancement ratio greater than 1 and less than 10)
  Sucrose Enhancement EC50 Ratio: C (A “C” value indicates an enhancement ratio greater than 1 and less than 10)
3 μM test compound
  Sucrose Enhancement EC50 Ratio: C (A “C” value indicates an enhancement ratio greater than 1 and less than 10)

## NC1=NS(=O)(=O)Nc2cccc(OC[C@H]3CCCN(c4cc(C(=O)NCCO)ccn4)C3)c21 [Compound 603]
10 μM test compound
  Fructose Enhancement EC50 Ratio: C (A “C” value indicates an enhancement ratio greater than 1 and less than 10)
  Sucralose Enhancement EC50 Ratio: A (An “A” value indicates an enhancement ratio of greater than 20)
  Sucrose Enhancement EC50 Ratio: B (A “B” value indicates an enhancement ratio from 10 to 20)
50 μM test compound
  Fructose Enhancement EC50 Ratio: C (A “C” value indicates an enhancement ratio greater than 1 and less than 10)
  Sucrose Enhancement EC50 Ratio: C (A “C” value indicates an enhancement ratio greater than 1 and less than 10)
3 μM test compound
  Sucrose Enhancement EC50 Ratio: C (A “C” value indicates an enhancement ratio greater than 1 and less than 10)

## CN(C)C(=O)c1ccnc(N2CCC[C@H](COc3cccc4c3C(N)=NS(=O)(=O)N4)C2)c1 [Compound 610]
10 μM test compound
  Fructose Enhancement EC50 Ratio: C (A “C” value indicates an enhancement ratio greater than 1 and less than 10)
  Sucralose Enhancement EC50 Ratio: A (An “A” value indicates an enhancement ratio of greater than 20)
  Sucrose Enhancement EC50 Ratio: C (A “C” value indicates an enhancement ratio greater than 1 and less than 10)
50 μM test compound
  Fructose Enhancement EC50 Ratio: C (A “C” value indicates an enhancement ratio greater than 1 and less than 10)
  Sucralose Enhancement EC50 Ratio: A (An “A” value indicates an enhancement ratio of greater than 20)
  Sucrose Enhancement EC50 Ratio: B (A “B” value indicates an enhancement ratio from 10 to 20)

## CCN(CC)C(=O)c1ccnc(N2CCC[C@H](COc3cccc4c3C(N)=NS(=O)(=O)N4)C2)c1 [Compound 611]
10 μM test compound
  Fructose Enhancement EC50 Ratio: C (A “C” value indicates an enhancement ratio greater than 1 and less than 10)
  Sucralose Enhancement EC50 Ratio: B (A “B” value indicates an enhancement ratio from 10 to 20)
  Sucrose Enhancement EC50 Ratio: B (A “B” value indicates an enhancement ratio from 10 to 20)
50 μM test compound
  Sucralose Enhancement EC50 Ratio: A (An “A” value indicates an enhancement ratio of greater than 20)
  Sucrose Enhancement EC50 Ratio: C (A “C” value indicates an enhancement ratio greater than 1 and less than 10)
3 μM test compound
  Sucrose Enhancement EC50 Ratio: C (A “C” value indicates an enhancement ratio greater than 1 and less than 10)

## COc1cc(OC)nc(N2CCC[C@H](COc3cccc4c3C(N)=NS(=O)(=O)N4)C2)n1 [Compound 306]
10 μM test compound
  Fructose Enhancement EC50 Ratio: C (A “C” value indicates an enhancement ratio greater than 1 and less than 10)
  Sucralose Enhancement EC50 Ratio: B (A “B” value indicates an enhancement ratio from 10 to 20)
  Sucrose Enhancement EC50 Ratio: C (A “C” value indicates an enhancement ratio greater than 1 and less than 10)
50 μM test compound
  Sucralose Enhancement EC50 Ratio: B (A “B” value indicates an enhancement ratio from 10 to 20)
  Sucrose Enhancement EC50 Ratio: C (A “C” value indicates an enhancement ratio greater than 1 and less than 10)
3 μM test compound
  Sucrose Enhancement EC50 Ratio: C (A “C” value indicates an enhancement ratio greater than 1 and less than 10)

## NC1=NS(=O)(=O)Nc2cccc(OC[C@H]3CCCN(c4cccc(C(=O)NC5CC5)n4)C3)c21 [Compound 400, (S)-6-(3-(((4-amino-2,2-dioxido-1H-benzo[c][1,2,6]thiadiazin-5-yl)oxy)methyl)piperidin-1-yl)-N-cyclopropylpicolinamide]
10 μM test compound
  Fructose Enhancement EC50 Ratio: C (A “C” value indicates an enhancement ratio greater than 1 and less than 10)
  Sucralose Enhancement EC50 Ratio: A (An “A” value indicates an enhancement ratio of greater than 20)
  Sucrose Enhancement EC50 Ratio: C (A “C” value indicates an enhancement ratio greater than 1 and less than 10)
50 μM test compound
  Fructose Enhancement EC50 Ratio: C (A “C” value indicates an enhancement ratio greater than 1 and less than 10)
  Sucralose Enhancement EC50 Ratio: A (An “A” value indicates an enhancement ratio of greater than 20)
  Sucrose Enhancement EC50 Ratio: B (A “B” value indicates an enhancement ratio from 10 to 20)
3 μM test compound
  Sucrose Enhancement EC50 Ratio: C (A “C” value indicates an enhancement ratio greater than 1 and less than 10)
